One test has as its target human KHK-A (Homo sapiens (Human), UniProt P50053). Put plainly: KHK Biochemical Assay (IC50), ADP-Glo, KHK-A. Particulars: ADP-Glo; average of at least two separate assays. A digest of the protocol: (§1)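 His-tagged enzyme expressed in BL21 (DE3), Ni-NTA purified. Compounds, serially diluted 1:3 in DMSO, pre-incubated 30 min with enzyme in 50 mM Hepes pH 7.4, 140 mM KCl, 5 mM MgCl2, 0.01% Triton-X, then ATP and fructose added; 4 h at room temperature. ADP formation read by ADP-Glo luminescence.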
In general terms: In ADP-Glo the light output rises with the ADP produced.

Another test deals with human KHK-C (Homo sapiens (Human), UniProt P50053). Nature of the test: KHK Biochemical Assay (IC50), ADP-Glo, KHK-C. Particulars: ADP-Glo; average of at least two separate assays. A digest of the protocol: as §1
Sequence of human KHK-C (P50053 whole entry): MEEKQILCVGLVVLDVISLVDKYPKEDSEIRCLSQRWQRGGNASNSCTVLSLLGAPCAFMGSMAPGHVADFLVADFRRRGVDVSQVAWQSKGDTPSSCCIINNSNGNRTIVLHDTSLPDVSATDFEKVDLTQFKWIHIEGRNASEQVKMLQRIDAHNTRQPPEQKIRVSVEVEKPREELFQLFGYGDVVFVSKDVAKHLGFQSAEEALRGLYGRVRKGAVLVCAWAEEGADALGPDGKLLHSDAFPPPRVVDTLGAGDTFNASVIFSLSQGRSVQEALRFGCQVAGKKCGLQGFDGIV

Sequence of human KHK-A (P50053 other isoform, or with tags, fused parts or gaps): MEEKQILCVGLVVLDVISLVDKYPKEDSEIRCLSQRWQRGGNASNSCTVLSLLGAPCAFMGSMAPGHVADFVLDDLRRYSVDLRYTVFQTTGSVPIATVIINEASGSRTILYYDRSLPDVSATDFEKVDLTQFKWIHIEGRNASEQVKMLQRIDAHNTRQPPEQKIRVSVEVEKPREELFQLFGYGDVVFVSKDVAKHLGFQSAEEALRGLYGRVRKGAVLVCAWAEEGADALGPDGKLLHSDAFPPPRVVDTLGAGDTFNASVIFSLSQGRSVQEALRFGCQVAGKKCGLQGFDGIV

`COc1cc(S(=N)(=O)c2cc(-c3nc(N4CC[C@@H]4C)nc4c3CCC4)ccc2OC)ccc1C#N` (stereo partly drawn) [Example 850, 2-methoxy-4-(2-methoxy-5-(2-((S)-2-methylazetidin-1-yl)-6,7-dihydro-5H-cyclopenta[d]pyrimidin-4-yl)phenylsulfonimidoyl)benzonitrile]: the values for the IC50 at human KHK-A and at human KHK-C were 59.6 nM and 141 nM, respectively.

In the case of `COc1ccc(-c2nc(N3CC[C@@H]3C)nc3c2CCC3)cc1S(=N)(=O)c1ccc(C#N)cc1` (stereo partly drawn) [Example 851, 4-(2-methoxy-5-(2-((S)-2-methylazetidin-1-yl)-6,7-dihydro-5H-cyclopenta[d]pyrimidin-4-yl)phenylsulfonimidoyl)benzonitrile], the results for the IC50 against human KHK-A and at human KHK-C were 10.1 nM and 17.8 nM, respectively.

With `C[C@H]1CCN1c1nc2c(c(-c3ccc4[nH]cnc4c3)n1)CCC2` [Example 852, (S)-5-(2-(2-methylazetidin-1-yl)-6,7-dihydro-5H-cyclopenta[d]pyrimidin-4-yl)-1H-benzo[d]imidazole], the IC50 against human KHK-A was determined as 21.8 nM; against human KHK-C it was 18.9 nM.

For `C[C@H]1CCN1c1nc2c(c(-c3ccc4ncn(C)c4c3)n1)CCC2` [Example 853, (S)-1-methyl-6-(2-(2-methylazetidin-1-yl)-6,7-dihydro-5H-cyclopenta[d]pyrimidin-4-yl)-1H-benzo[d]imidazole], the figures for the IC50 on human KHK-A and against human KHK-C were 73.2 nM and 35.3 nM, respectively.

As to `C[C@H]1CCN1c1nc2c(c(-c3ccc4c(c3)CCCCC4NS(C)(=O)=O)n1)CCC2` (stereo partly drawn) [Example 854, N-(2-(2-((S)-2-methylazetidin-1-yl)-6,7-dihydro-5H-cyclopenta[d]pyrimidin-4-yl)-6,7,8,9-tetrahydro-5H-benzo[7]annulen-5-yl)methanesulfonamide], the IC50 against human KHK-A turned out to be 543 nM; on human KHK-C, 442 nM.

For `C[C@H]1CCN1c1nc2c(c(-c3ccc4c(c3)NC(=O)CNC4)n1)CCC2` [Example 855, (S)-8-(2-(2-methylazetidin-1-yl)-6,7-dihydro-5H-cyclopenta[d]pyrimidin-4-yl)-1,3,4,5-tetrahydro-2H-benzo[e][1,4]diazepin-2-one], the IC50 came out at 84.9 nM on human KHK-A and 80.5 nM on human KHK-C.

Regarding `C[C@H]1CCN1c1nc2c(c(-c3ccc4c(c3)N(C)C(=O)CNC4)n1)CCC2` [Example 856, (S)-1-methyl-8-(2-(2-methylazetidin-1-yl)-6,7-dihydro-5H-cyclopenta[d]pyrimidin-4-yl)-1,3,4,5-tetrahydro-2H-benzo[e][1,4]diazepin-2-one], the values for the IC50 against human KHK-A and against human KHK-C were 143 nM and 175 nM, respectively.

`C[C@H]1CCN1c1nc2c(c(-c3nc4ccc(C(N)=O)cc4s3)n1)CCC2` [Example 857, (S)-2-(2-(2-methylazetidin-1-yl)-6,7-dihydro-5H-cyclopenta[d]pyrimidin-4-yl)benzo[d]thiazole-6-carboxamide]: the IC50 worked out at 141 nM on human KHK-A and 149 nM against human KHK-C.

As to `C[C@H]1CCN1c1nc2c(c(-c3ccc4c(=O)[nH]c(=O)n(C)c4c3)n1)CCC2` [Example 858, (S)-1-methyl-7-(2-(2-methylazetidin-1-yl)-6,7-dihydro-5H-cyclopenta[d]pyrimidin-4-yl)quinazoline-2,4(1H,3H)-dione], the IC50 against human KHK-A was found to be 18 nM; at human KHK-C, 43.6 nM.

Regarding `C[C@H]1CCN1c1nc2c(c(-c3ccc4c(c3)CCNC4C(F)(F)F)n1)CCC2` (stereo partly drawn) [Example 859, 6-(2-((S)-2-methylazetidin-1-yl)-6,7-dihydro-5H-cyclopenta[d]pyrimidin-4-yl)-1-(trifluoromethyl)-1,2,3,4-tetrahydroisoquinoline], the IC50 was determined as 434 nM at human KHK-A and 301 nM on human KHK-C.

As for `C[C@H]1CCN1c1nc2c(c(-c3cccc(S(C)(=N)=O)n3)n1)CCC2` (stereo partly drawn) [Example 860, imino(methyl)(6-(2-((S)-2-methylazetidin-1-yl)-6,7-dihydro-5H-cyclopenta[d]pyrimidin-4-yl)pyridin-2-yl)-λ^6-sulfanone], the IC50 against human KHK-A was found to be 191 nM; on human KHK-C it was 224 nM.

As to `CCS(=N)(=O)c1cc(-c2nc(N3CC[C@@H]3C)nc3c2CCC3)ccc1OC` (stereo partly drawn) [Example 861, ethyl(imino)(2-methoxy-5-(2-((S)-2-methylazetidin-1-yl)-6,7-dihydro-5H-cyclopenta[d]pyrimidin-4-yl)phenyl)-λ^6-sulfanone], the IC50 against human KHK-A worked out at 4.9 nM; on human KHK-C, 15.2 nM.

For the molecule `COc1cc(-c2nc(N3CC[C@@H]3C)nc3c2CCC3)ccc1CS(N)(=O)=O` [Example 862, (S)-(2-methoxy-4-(2-(2-methylazetidin-1-yl)-6,7-dihydro-5H-cyclopenta[d]pyrimidin-4-yl)phenyl)methanesulfonamide], the values for the IC50 at human KHK-A and against human KHK-C were 48.1 nM and 76.4 nM, respectively.

For the molecule `C[C@H]1CCN1c1nc2c(c(-c3cccc(Sc4ccc(C#N)cc4)c3)n1)CCC2` [Example 863, (S)-4-((3-(2-(2-methylazetidin-1-yl)-6,7-dihydro-5H-cyclopenta[d]pyrimidin-4-yl)phenyl)thio)benzonitrile], the IC50 at human KHK-A and on human KHK-C was more than 1000 nM throughout.

In the case of `CCc1cc(-c2nc(N3CC[C@@H]3C)nc3c2CCC3)ccc1C1(N)COC1` [Example 864, (S)-3-(2-ethyl-4-(2-(2-methylazetidin-1-yl)-6,7-dihydro-5H-cyclopenta[d]pyrimidin-4-yl)phenyl)oxetan-3-amine], the values for the IC50 against human KHK-A and on human KHK-C were 10 nM and 6.3 nM, respectively.

Take `C[C@H]1CCN1c1nc2c(c(-c3ccc4c(c3)C3(CCC3)CNC4=O)n1)CCC2` [Example 865, (S)-6′-(2-(2-methylazetidin-1-yl)-6,7-dihydro-5H-cyclopenta[d]pyrimidin-4-yl)-2′,3′-dihydro-1′H-spiro[cyclobutane-1,4′-isoquinolin]-1′-one]: the IC50 on human KHK-A worked out at 25.4 nM; on human KHK-C, 17.3 nM.

`C[C@H]1CCN1c1nc2c(c(-c3cc4c(s3)C(=O)NC(C)(C)N4)n1)CCC2` [Example 866, (S)-2,2-dimethyl-6-(2-(2-methylazetidin-1-yl)-6,7-dihydro-5H-cyclopenta[d]pyrimidin-4-yl)-2,3-dihydrothieno[3,2-d]pyrimidin-4(1H)-one]: the values for the IC50 on human KHK-A and against human KHK-C were 18.9 nM and 27.7 nM, respectively.

Regarding `C[C@H]1CCN1c1nc2c(c(-c3cc4c(N)n[nH]c4cn3)n1)CCC2` [Example 867, (S)-5-(2-(2-methylazetidin-1-yl)-6,7-dihydro-5H-cyclopenta[d]pyrimidin-4-yl)-1H-pyrazolo[3,4-c]pyridin-3-amine], the IC50 at human KHK-A and against human KHK-C was more than 1000 nM in each case.

`C[C@H]1CCN1c1nc2c(c(-c3cc4c(N)nn(C(=O)OC(C)(C)C)c4cn3)n1)CCC2` [Example 868, tert-butyl (S)-3-amino-5-(2-(2-methylazetidin-1-yl)-6,7-dihydro-5H-cyclopenta[d]pyrimidin-4-yl)-1H-pyrazolo[3,4-c]pyridine-1-carboxylate]: the IC50 against human KHK-A was determined as 158 nM; against human KHK-C it was 230 nM.

Take `COCCS(=N)(=O)c1cc(-c2nc(N3CC[C@@H]3C)nc3c2CCC3)ccc1OC` (stereo partly drawn) [Example 869, imino(2-methoxy-5-(2-((S)-2-methylazetidin-1-yl)-6,7-dihydro-5H-cyclopenta[d]pyrimidin-4-yl)phenyl)(2-methoxyethyl)-λ^6-sulfanone]: the figures for the half-inhibitory concentration (IC50) against human KHK-A and at human KHK-C were 5.9 nM and 21.6 nM, respectively.

As for `C[C@H]1CCN1c1nc2c(c(-c3ccc4c(c3)C3(CC3)C(=O)NC4=O)n1)CCC2` [Example 870, (S)-6′-(2-(2-methylazetidin-1-yl)-6,7-dihydro-5H-cyclopenta[d]pyrimidin-4-yl)-1′H-spiro[cyclopropane-1,4′-isoquinoline]-1′,3′(2′H)-dione], the IC50 on human KHK-A came out at 10.9 nM; on human KHK-C, 69.5 nM.

As to `C[C@H]1CCN1c1nc2c(c(-c3ccc(-c4noc(=O)[nH]4)cc3)n1)CCC2` [Example 871, (S)-3-(4-(2-(2-methylazetidin-1-yl)-6,7-dihydro-5H-cyclopenta[d]pyrimidin-4-yl)phenyl)-1,2,4-oxadiazol-5(4H)-one], the IC50 on human KHK-A stood at 50.4 nM; against human KHK-C, 23.4 nM.

For `C[C@H]1CCN1c1nc2c(c(-c3cccc(-c4noc(=O)[nH]4)c3)n1)CCC2` [Example 872, (S)-3-(3-(2-(2-methylazetidin-1-yl)-6,7-dihydro-5H-cyclopenta[d]pyrimidin-4-yl)phenyl)-1,2,4-oxadiazol-5(4H)-one], the values for the IC50 against human KHK-A and against human KHK-C were 27 nM and 28.9 nM, respectively.

Take `C[C@H]1CCN1c1nc2c(c(-c3cccc(S(=N)(N)=O)c3)n1)CCC2` (stereo partly drawn) [Example 873, 3-(2-((S)-2-methylazetidin-1-yl)-6,7-dihydro-5H-cyclopenta[d]pyrimidin-4-yl)benzenesulfonimidamide]: the figures for the IC50 at human KHK-A and on human KHK-C were 24.1 nM and 23.6 nM, respectively.

Regarding `C[C@H]1CCN1c1nc2c(c(-c3ccc(S(=N)(N)=O)cc3)n1)CCC2` (stereo partly drawn) [Example 874, 4-(2-((S)-2-methylazetidin-1-yl)-6,7-dihydro-5H-cyclopenta[d]pyrimidin-4-yl)benzenesulfonimidamide], the IC50 on human KHK-A was determined as 88.4 nM; on human KHK-C it was 72.3 nM.

On to `C[C@H]1CCN1c1nc2c(c(-c3ccc4c(c3)C3(CC4)CNC(=O)C3)n1)CCC2` (stereo partly drawn) [Example 875, 6-(2-((S)-2-methylazetidin-1-yl)-6,7-dihydro-5H-cyclopenta[d]pyrimidin-4-yl)-2,3-dihydrospiro[indene-1,3′-pyrrolidin]-5′-one], for which the figures for the IC50 against human KHK-A and at human KHK-C were 67 nM and 58 nM, respectively.

Turning to `C[C@H]1CCN1c1nc2c(c(-c3cccc(-c4nnn[nH]4)c3)n1)CCC2` [Example 876, (S)-4-(3-(1H-tetrazol-5-yl)phenyl)-2-(2-methylazetidin-1-yl)-6,7-dihydro-5H-cyclopenta[d]pyrimidine], the values for the IC50 against human KHK-A and at human KHK-C were 70.4 nM and 99.4 nM, respectively.

For orientation: IC50 means the concentration that inhibits the measured activity by half.
